Assay [1] deals with T1, cloned recombinant human HDAC-1 (Homo sapiens, UniProt Q13547).
T1 construct: made in house; host or cells: Baculovirus insect cell expression system
Kind of assay: Human HDAC-1 enzyme inhibition, Assay 1 ([3H]-acetylated histone substrate, scintillation counting). The assay is classed as biochemical. On the procedure:
Assay 1. HDAC inhibitors were screened against a cloned recombinant human HDAC-1 enzyme expressed and purified from a Baculovirus insect cell expression system. […] The mixture was extracted with ethyl acetate and the released [^3H]-acetic acid was quantified by scintillation counting. For inhibition studies, the enzyme was preincubated with compounds at 4° C. for 30 minutes prior to initiation of the enzymatic assay. IC50 values for HDAC enzyme inhibitors were determined by performing dose response curves with individual compounds and determining the concentration of inhibitor producing fifty percent of the maximal inhibition.

The subject of a further assay is HCT116 cells. Briefly: MTT assay. The following applies: Homo sapiens, HCT116 cells, 72 hours. Type of assay: cell-based. The procedure:
HCT116 cells (2000/well) were plated into 96-well tissue culture plates one day before compound treatment. Compounds at various concentrations were added to the cells. The cells were incubated for 72 hours at 37° C. in 5% CO2 incubator. MTT (3-[4,5-dimethylthiazol-2-yl]-2,5 diphenyl tetrazolium bromide, Sigma) was added at a final concentration of 0.5 mg/ml and incubated with the cells for 4 hours before one volume of solubilization buffer (50% N,N-dimethylformamide, 20% SDS, pH 4.7) was added onto the cultured cells. […] OD values were converted to cell numbers according to a standard growth curve of the relevant cell line.
(In general: Tetrazolium dyes change colour on reduction, which living cells bring about.)

Setting [2] is: Table 5a, read-out: Human HDAC-1 IC50.
The mark [3] stands for this setting: Table 5c, read-out: Human HDAC-1 IC50.
The mark [4] stands for this setting: Table 5E, read-out: Human HDAC-1 IC50.
[5] abbreviates: Table 5F, read-out: Human HDAC-1 IC50.
The mark [6] stands for this setting: Table 5b, read-out: Human HDAC-1 IC50.

We go through 41 compounds from US7868204B2, “Inhibitors of histone deacetylase” (MethylGene Inc., priority 2001, dated 2011).

pIC50: −log10 of the molar value. Where two headings read alike, the source gives them in different places.

T1 sequence (Q13547 whole entry): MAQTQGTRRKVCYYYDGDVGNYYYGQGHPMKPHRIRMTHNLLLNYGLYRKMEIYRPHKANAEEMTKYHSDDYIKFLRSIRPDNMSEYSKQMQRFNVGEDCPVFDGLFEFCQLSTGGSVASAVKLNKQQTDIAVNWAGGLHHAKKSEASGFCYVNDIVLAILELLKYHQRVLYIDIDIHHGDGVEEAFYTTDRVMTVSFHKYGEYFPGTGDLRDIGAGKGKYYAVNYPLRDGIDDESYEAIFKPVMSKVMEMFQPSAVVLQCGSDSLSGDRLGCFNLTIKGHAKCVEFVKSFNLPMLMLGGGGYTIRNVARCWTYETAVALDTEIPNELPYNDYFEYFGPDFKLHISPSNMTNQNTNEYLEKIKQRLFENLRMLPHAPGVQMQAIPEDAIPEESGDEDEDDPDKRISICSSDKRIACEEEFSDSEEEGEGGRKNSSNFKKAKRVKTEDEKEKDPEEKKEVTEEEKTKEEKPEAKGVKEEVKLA

As for `Nc1ccccc1NC(=O)c1ccc(CNc2nc(N3CCCCC3)nc(N3CCCCC3)n2)cc1` [Cpd 26, N-(2-Amino-phenyl)-4-[(4,6-di-piperidin-1-yl-[1,3,5]triazin-2-ylamino)-methyl]-benzamide], the pIC50 – broadly, −log10 of the IC50, conventionally taken in molar units – in assay [1] (setting [2]) is 6.30; in the assay with HCT116 cells (HCT-116, 72 h, Table 5a), 5.70.

Consider `Nc1ccccc1NC(=O)c1ccc(CNc2nc(NCCc3ccccc3)nc(NC3Cc4ccccc4C3)n2)cc1` [Cpd 27], for which the pIC50 in assay [1] (setting [2]) is 6.40; in the assay on HCT116 cells (HCT-116, 72 h, Table 5a) it was 5.70.

On to `COc1ccc(CNc2cccc(/C=C/C(=O)Nc3ccccc3N)n2)cc1` [Cpd 51, N-(2-aminophenyl)-3-[6-(4-methoxy-benzylamino)-pyridin-2-yl]-acrylamide], for which the pIC50 is 4.66 in assay [1] (setting [3]) and 5.40 with HCT116 cells (HCT-116, 72 h, Table 5c).

For the compound `COc1cc(CNCc2ccc(/C=C/C(=O)Nc3ccccc3N)cc2)cc(OC)c1OC` [Cpd 59, N-(2-aminophenyl)-3-{4-[(3,4,5-trimethoxy-benzylamino)-methyl]-phenyl}-acrylamide], the pIC50 in assay [1] (setting [3]) was 4.92; in the assay with HCT116 cells (HCT-116, 72 h, Table 5c), 4.66.

Consider `COc1ccc(CNc2ccc(/C=C(\C)C(=O)Nc3ccccc3N)cn2)cc1` [Cpd 61b, N-(2-aminophenyl)-3-[6-(4-methoxy-benzylamino)-pyridin-3-yl]-2-methyl-acrylamide], for which the pIC50 in assay [1] (setting [3]) was 5.15; with HCT116 cells (HCT-116, 72 h, Table 5c) it was 4.92.

On to `COc1ccc(CNc2ccc(/C=C/C(=O)Nc3ccccc3N)cc2)cc1` [Cpd 65, N-(2-aminophenyl)-3-{4-(4-methoxy-benzylamino)-phenyl}-acrylamide], for which, in the assay with HCT116 cells (HCT-116, 72 h, Table 5c), the pIC50 was 4.43.

As to `Nc1ccccc1NC(=O)/C=C/c1ccc(NC/C=C/c2ccccc2)cc1` [Cpd 71], the pIC50 in assay [1] (setting [3]) was 5.00; with HCT116 cells (HCT-116, 72 h, Table 5c), 4.36.

As to `COc1ccc(C(=O)Nc2ccc(/C=C/C(=O)Nc3ccccc3N)cc2)cc1` [Cpd 72, N-(4-[2-(2-Amino-phenylcarbamoyl)-vinyl]-phenyl}-4-methoxy-benzamide], the pIC50 in assay [1] (setting [3]) is 4.80; with HCT116 cells (HCT-116, 72 h, Table 5c) it was 4.68.

`COc1ccc(CNc2ccc3cc(/C=C/C(=O)Nc4ccccc4N)ccc3n2)cc1` [Cpd 88, N-(2-aminophenyl)-3-[2-(4-methoxy-benzylamino)-quinolin-6-yl]-acrylamide] gave a pIC50 in the assay with HCT116 cells (HCT-116, 72 h, Table 5c) of under 4.41.

Turning to `Nc1ccccc1NC(=O)/C=C/c1ccc(NCCCn2ccnc2)nc1` [Cpd 97, N-(2-aminophenyl)-3-[6-(3-imidazol-1-yl-propylamino)-pyridin-3-yl]-acrylamide], the pIC50 is 5.00 in assay [1] (setting [3]) and 4.92 in the assay on HCT116 cells (HCT-116, 72 h, Table 5c).

On to `NCc1cccc(CNc2ccc(/C=C/C(=O)Nc3ccccc3N)cn2)c1` [Cpd 102, 3-[6-(3-aminomethyl-benzylamino)-pyridin-3-yl]-N-(2-aminophenyl)-acrylamide], for which the pIC50 was 4.70 in assay [1] (setting [3]) and 5.22 with HCT116 cells (HCT-116, 72 h, Table 5c).

As for `Nc1ccccc1NC(=O)/C=C/c1ccc(CCNC(=O)OCc2cccnc2)cc1` [Cpd 105], the pIC50 in assay [1] (setting [3]) is 4.80; in the assay with HCT116 cells (HCT-116, 72 h, Table 5c), 4.85.

As for `COc1cc(CN(C)Cc2ccc(/C=C/C(=O)Nc3ccccc3N)cc2)cc(OC)c1OC` [Cpd 107], the pIC50 was 4.82 in assay [1] (setting [3]) and 4.77 in the assay on HCT116 cells (HCT-116, 72 h, Table 5c).

As to `Nc1ccccc1NC(=O)/C=C/c1ccc(CSc2ccc3ccccc3n2)cc1` [Cpd 110, N-(2-Amino-phenyl)-3-[4-(quinolin-2-ylsulfanylmethyl)-phenyl]-acrylamide], in assay [1] (setting [3]), the pIC50 was 5.52.

For the compound `Nc1ccccc1NC(=O)/C=C/c1ccc(NCc2cccnc2)cc1` [Cpd 111, N-(2-amino-phenyl)-3-{4-[(pyridin-3-ylmethyl)-amino]-phenyl}-acrylamide], the pIC50 in assay [1] (setting [3]) is 5.00; in the assay on HCT116 cells (HCT-116, 72 h, Table 5c), 5.70.

For the compound `COc1ccc(C(=O)Nc2ccc(/C=C/C(=O)Nc3ccccc3N)cn2)cc1` [Cpd 114], the pIC50 in assay [1] (setting [3]) was 4.60; in the assay with HCT116 cells (HCT-116, 72 h, Table 5c) it was 6.30.

For `Nc1ccc(CNc2ncc(/C=C/C(=O)Nc3ccccc3N)cn2)cc1` [Cpd 115, 3-[2-(4-amino-benzylamino)-pyrimidin-5-yl]-N-(2-amino-phenyl)-acrylamide], the pIC50 in assay [1] (setting [3]) was 4.82; in the assay on HCT116 cells (HCT-116, 72 h, Table 5c) it was 5.05.

On to `Cc1ccc(CNc2ccc(/C=C/C(=O)Nc3ccccc3N)cn2)cc1` [Cpd 117, N-(2-Amino-phenyl)-3-[6-(4-methyl-benzylamino)-pyridin-3-yl]-acrylamide], for which the pIC50 in assay [1] (setting [3]) is 5.15; in the assay on HCT116 cells (HCT-116, 72 h, Table 5c), 5.52.

In the case of `COc1ccc(CNc2ncc(/C=C/C(=O)Nc3ccccc3N)cn2)cc1` [Cpd 118, N-(2-amino-phenyl)-3-[2(4-methoxy-benzylamino)-pyrimidin-5-yl]-acrylamide], the pIC50 in assay [1] (setting [3]) is 4.96; in the assay with HCT116 cells (HCT-116, 72 h, Table 5c), 5.10.

Turning to `COc1cccc(-c2ccc(C(=O)Nc3ccccc3N)cn2)c1` [Cpd 141, N-(2-Amino-phenyl)-6-(3-methoxyphenyl)-nicotinamide], the pIC50 is 5.15 in assay [1] (setting [4]) and 5.00 in the assay with HCT116 cells (HCT-116, 72 h, Table 5E).

As for `Nc1ccccc1NC(=O)c1ccc(CCN2C(=O)c3ccccc3C2=O)cc1` [Cpd 152, N-(2-Amino-phenyl)-4-[2-(1,3-dioxo-1,3-dihydro-isoindol-2-yl)-ethyl]-benzamide], the pIC50 was 6.52 in assay [1] (setting [4]) and 4.96 in the assay with HCT116 cells (HCT-116, 72 h, Table 5E).

Turning to `C=C(C)C#Cc1ccc(C(=O)Nc2ccccc2N)cc1` [Cpd 193], the pIC50 in assay [1] (setting [5]) is 5.40; with HCT116 cells (HCT-116, 72 h, Table 5F) it was 4.80.

Turning to `COc1cc(-c2ccc3sc(NCc4ccc(C(=O)Nc5ccccc5N)cc4)nc3c2)cc(OC)c1OC` [Cpd 194], in assay [1] (setting [5]), the pIC50 is 5.52.

With `CC(C)(O)C#Cc1ccc(C(=O)Nc2ccccc2N)cc1` [Cpd 195], the pIC50 was 5.15 in assay [1] (setting [5]) and 5.05 with HCT116 cells (HCT-116, 72 h, Table 5F).

As for `Nc1ccccc1NC(=O)c1ccc(C#Cc2ccccc2)cc1` [Cpd 196], the pIC50 is 5.40 in assay [1] (setting [5]) and 5.52 with HCT116 cells (HCT-116, 72 h, Table 5F).

For `C[Si](C)(C)C#Cc1ccc(C(=N)Nc2ccccc2N)cc1` [Cpd 198], the pIC50 in assay [1] (setting [5]) is 4.62; with HCT116 cells (HCT-116, Table 5F), 4.85.

For `Nc1ccccc1NC(=O)c1ccc(C#CC(c2ccc(Cl)cc2)N2CCOCC2)cc1` (stereo not drawn) [Cpd 201], the pIC50 is 4.96 in assay [1] (setting [5]) and 5.30 with HCT116 cells (HCT-116, 72 h, Table 5F).

On to `Cc1nc(NCc2ccc(C(=O)Nc3ccccc3N)cc2)nc(NC2Cc3ccccc3C2)n1` [Cpd 218], for which the pIC50 in assay [1] (setting [6]) is 7.00; in the assay on HCT116 cells (HCT-116, 72 h, Table 5b), 6.30.

As to `Nc1nc(N)nc(/C=C/c2ccc(C(=O)Nc3ccccc3N)cc2)n1` [Cpd 220], the pIC50 in assay [1] (setting [6]) was 5.15; with HCT116 cells (HCT-116, 72 h, Table 5b), 5.22.

With `Nc1nc(/C=C/c2ccc(C(=O)Nc3ccccc3N)cc2)nc(N2CCCCC2)n1` [Cpd 223], the pIC50 is 4.96 in assay [1] (setting [6]) and 5.70 in the assay with HCT116 cells (HCT-116, 72 h, Table 5b).

Consider `Nc1nc(CCc2ccc(C(=O)Nc3ccccc3N)cc2)nc(N2CCCCC2)n1` [Cpd 224], for which the pIC50 in assay [1] (setting [6]) is 5.30; in the assay with HCT116 cells (HCT-116, 72 h, Table 5b), 5.52.

Take `Nc1ccccc1NC(=O)c1ccc(CSc2nc3cc(OCCN4CCOCC4)ccc3[nH]2)cc1` [Cpd 236]: the pIC50 was 5.30 in assay [1] (setting [5]) and 5.22 in the assay with HCT116 cells (HCT-116, 72 h, Table 5F).

Turning to `COc1ccc(NCc2ccc(C(=O)Nc3cc(C(F)(F)F)ccc3N)cc2)cc1OC` [Cpd 453, N-(2-Amino-5-trifluoromethyl-phenyl)-4-[(3,4-dimethoxy-phenylamino)-methyl]-benzamide], the pIC50 in the assay on HCT116 cells (HCT-116, 72 h, Table 5F) is 4.43.

For `Nc1ccccc1NC(=O)c1ccc(-c2ccc(CNC3Cc4ccccc4C3)s2)cc1` [Cpd 465], the pIC50 in assay [1] (setting [5]) is 5.70.

`Cc1nc(NCCc2ccccc2)nc(NCc2ccc(C(=O)Nc3ccccc3N)cc2)n1` [Cpd 483, N-(2-amino-phenyl)-4-[(6-methyl-4-phenethylamino-[1,3,5]triazin-2-yl-amino)-methyl]-benzamide]: the negative logarithm of the IC50 (pIC50) in assay [1] (setting [6]) was 5.40.

`COc1cc2c(cc1OC)CN(c1ccc(/C=C/C(=O)Nc3ccccc3N)cc1)CC2` [Cpd 498, N-(2-Amino-phenyl)-3-[4-(6,7-dimethoxy-3,4-dihydro-1H-isoquinolin-2-yl)-phenyl]-acrylamide]: the pIC50 in assay [1] (Table 5d, read-out: HDAC-1 IC50) was under 4.60.

`COc1cccc(NCc2ccc(/C=C/C(=O)Nc3ccccc3N)cc2)c1` [Cpd 507, N-(2-Amino-phenyl)-3-{4-[(3-methoxy-phenylamino)-methyl]-phenyl}-acrylamide]: in the assay with HCT116 cells (HCT-116, Table 5d), the pIC50 was 5.00.

As for `COc1ccccc1NCc1ccc(/C=C/C(=O)Nc2ccccc2N)cc1` [Cpd 508, N-(2-Amino-phenyl)-3-{4-[(2-methoxy-phenylamino)-methyl]-phenyl}-acrylamide], the pIC50 in the assay with HCT116 cells (HCT-116, Table 5d) is 4.96.

In the assay on HCT116 cells (HCT-116, Table 5d), `Nc1ccccc1NC(=O)/C=C/c1ccc(CNc2ccccc2)cc1` [Cpd 509, N-(2-Amino-phenyl)-3-(4-phenylaminomethyl-phenyl)-acrylamide] had a pIC50 of 4.96.

For `Nc1ccccc1NC(=O)/C=C/c1ccc2c(c1)-c1ccccc1C2` [Cpd 519], the pIC50 in the assay with HCT116 cells (HCT-116, Table 5d) is 5.22.

Compound `COc1ccc(NCc2ccc(/C=C/C(=O)Nc3ccccc3N)cc2)cc1` [Cpd 541, N-(2-Amino-phenyl)-3-{4-[(4-methoxy-phenylamino)-methyl]-phenyl}-acrylamide] gave a pIC50 with HCT116 cells (HCT-116, Table 5d) of 4.92.
